Assay results taken from ChEMBL document CHEMBL1201862, “PubChem BioAssay data set” (2004).
Active and inactive are the calls of the source.

What was measured:
[1] = biological target: Cystic fibrosis transmembrane conductance regulator/Golgi-associated PDZ and coiled-coil motif-containing protein (Homo sapiens, UniProt P13569+Q9HD26); assay: CAL PDZ peptide-binding inhibitors, dose response, biochemical, fluorescence polarization, Cerulean-tagged CAL PDZ, cherry-picks (AID 504773)
[2] = biological target: Eukaryotic translation initiation factor 4E (Mus musculus, UniProt P63073); assay: eIF4E–eIF4G protein interaction inhibitors, dose response, biochemical, TR-FRET (AID 855); type: functional;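 note: potency for disrupting eIF4E binding to eIF4GI seen as loss of FRET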
Hexokinase HKDC1 = biological target: T1, Hexokinase HKDC1 (Homo sapiens, UniProt Q2TB90); assay: HKDC1 hexokinase inhibitors, dose response, biochemical, W721R variant (AID 504729); type: functional
T1 sequence (Q2TB90 whole entry): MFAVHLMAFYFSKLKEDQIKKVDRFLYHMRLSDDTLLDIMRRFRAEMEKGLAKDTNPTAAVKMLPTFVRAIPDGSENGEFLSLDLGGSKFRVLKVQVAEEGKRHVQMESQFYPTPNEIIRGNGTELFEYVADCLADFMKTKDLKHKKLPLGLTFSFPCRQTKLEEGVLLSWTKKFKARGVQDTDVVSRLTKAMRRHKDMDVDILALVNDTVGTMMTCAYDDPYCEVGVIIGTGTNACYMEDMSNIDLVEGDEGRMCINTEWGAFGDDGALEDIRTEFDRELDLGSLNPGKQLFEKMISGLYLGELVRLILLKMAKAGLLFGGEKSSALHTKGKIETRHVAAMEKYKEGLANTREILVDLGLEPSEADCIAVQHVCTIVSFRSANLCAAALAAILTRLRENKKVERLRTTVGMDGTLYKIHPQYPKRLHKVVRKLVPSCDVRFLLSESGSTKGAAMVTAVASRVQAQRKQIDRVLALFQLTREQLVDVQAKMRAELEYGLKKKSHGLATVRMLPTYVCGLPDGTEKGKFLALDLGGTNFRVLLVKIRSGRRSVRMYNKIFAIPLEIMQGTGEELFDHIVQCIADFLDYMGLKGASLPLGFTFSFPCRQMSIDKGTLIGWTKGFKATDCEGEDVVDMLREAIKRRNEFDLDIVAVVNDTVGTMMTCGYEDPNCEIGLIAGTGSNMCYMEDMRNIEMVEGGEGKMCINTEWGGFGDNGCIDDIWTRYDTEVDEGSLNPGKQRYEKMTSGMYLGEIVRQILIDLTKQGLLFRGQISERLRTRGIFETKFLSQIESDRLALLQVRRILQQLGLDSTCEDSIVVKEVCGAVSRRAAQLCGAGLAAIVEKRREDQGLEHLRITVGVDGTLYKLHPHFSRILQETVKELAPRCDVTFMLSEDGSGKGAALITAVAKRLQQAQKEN

[3] = biological target: T2, Replicative DNA helicase DnaB (Mycobacterium tuberculosis, UniProt P9WMR3); assay: DnaB intein splicing inhibitors, dose response, biochemical, cell-free fluorescence (AID 449749); type: functional
T2 sequence (P9WMR3 whole entry): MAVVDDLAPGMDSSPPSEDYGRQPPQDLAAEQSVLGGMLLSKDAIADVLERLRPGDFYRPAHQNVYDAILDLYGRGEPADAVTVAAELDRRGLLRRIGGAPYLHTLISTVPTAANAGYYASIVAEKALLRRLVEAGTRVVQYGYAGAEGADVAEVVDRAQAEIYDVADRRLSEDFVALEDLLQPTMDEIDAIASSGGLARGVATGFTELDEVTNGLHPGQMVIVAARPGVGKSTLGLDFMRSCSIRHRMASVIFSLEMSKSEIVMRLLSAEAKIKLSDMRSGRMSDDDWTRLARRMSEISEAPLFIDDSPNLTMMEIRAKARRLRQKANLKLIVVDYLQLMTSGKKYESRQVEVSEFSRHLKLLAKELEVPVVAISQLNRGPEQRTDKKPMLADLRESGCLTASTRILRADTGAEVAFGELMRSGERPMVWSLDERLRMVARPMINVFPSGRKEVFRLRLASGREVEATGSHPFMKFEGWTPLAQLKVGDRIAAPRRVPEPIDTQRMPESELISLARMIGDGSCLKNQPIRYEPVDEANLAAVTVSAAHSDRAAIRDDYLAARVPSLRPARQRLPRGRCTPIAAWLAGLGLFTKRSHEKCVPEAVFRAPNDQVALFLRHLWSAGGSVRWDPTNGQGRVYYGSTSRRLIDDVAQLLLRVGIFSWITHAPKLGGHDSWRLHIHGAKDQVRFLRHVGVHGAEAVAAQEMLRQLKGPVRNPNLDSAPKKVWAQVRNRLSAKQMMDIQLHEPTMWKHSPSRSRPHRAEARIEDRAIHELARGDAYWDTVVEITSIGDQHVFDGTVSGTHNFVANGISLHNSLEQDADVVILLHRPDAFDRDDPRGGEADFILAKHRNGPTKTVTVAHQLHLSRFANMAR

Protein RecA = biological target: T3, Protein RecA (Mycobacterium tuberculosis, UniProt P9WHJ3); assay: Fluorescence Cell-Free Homogeneous Dose Retest to Identify Inhibitors of RecA-Intein Splicing Activity. [Related pubchem assays (depositor defined):AID2097, AID2223, AID489010, AID492950]; type: functional
T3 sequence (P9WHJ3 whole entry): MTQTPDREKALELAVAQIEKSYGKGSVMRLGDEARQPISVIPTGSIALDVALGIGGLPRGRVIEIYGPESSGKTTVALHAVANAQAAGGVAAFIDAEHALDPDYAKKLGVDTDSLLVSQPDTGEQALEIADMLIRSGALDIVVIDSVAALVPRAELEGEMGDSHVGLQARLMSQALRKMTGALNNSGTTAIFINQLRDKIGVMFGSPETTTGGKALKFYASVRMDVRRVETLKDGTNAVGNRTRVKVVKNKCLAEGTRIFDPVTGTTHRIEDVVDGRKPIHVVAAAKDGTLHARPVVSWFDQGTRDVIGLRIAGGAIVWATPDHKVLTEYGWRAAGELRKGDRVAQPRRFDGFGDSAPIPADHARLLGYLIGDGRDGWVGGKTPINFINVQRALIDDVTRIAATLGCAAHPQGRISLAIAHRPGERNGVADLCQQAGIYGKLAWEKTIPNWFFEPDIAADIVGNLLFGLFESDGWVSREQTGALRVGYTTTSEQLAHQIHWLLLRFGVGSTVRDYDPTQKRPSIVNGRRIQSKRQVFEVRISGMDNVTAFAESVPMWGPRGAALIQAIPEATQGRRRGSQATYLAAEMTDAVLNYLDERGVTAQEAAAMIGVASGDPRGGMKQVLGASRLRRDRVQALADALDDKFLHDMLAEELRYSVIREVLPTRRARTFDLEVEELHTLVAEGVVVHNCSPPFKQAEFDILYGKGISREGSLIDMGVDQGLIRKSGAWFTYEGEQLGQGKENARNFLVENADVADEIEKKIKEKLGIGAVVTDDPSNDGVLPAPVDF

[4] = CAL PDZ domain peptide-binding inhibitors, dose response, biochemical, fluorescence polarization, untagged CAL PDZ, cherry-pick (AID 602267); type: functional

Sequence of Eukaryotic translation initiation factor 4E (P63073 whole entry): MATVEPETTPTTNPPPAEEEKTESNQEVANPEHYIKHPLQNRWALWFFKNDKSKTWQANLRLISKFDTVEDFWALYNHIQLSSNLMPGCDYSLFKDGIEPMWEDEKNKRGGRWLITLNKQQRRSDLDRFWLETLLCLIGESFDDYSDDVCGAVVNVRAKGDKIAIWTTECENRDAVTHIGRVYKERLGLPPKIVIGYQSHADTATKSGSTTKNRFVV
Sequence of Cystic fibrosis transmembrane conductance regulator/Golgi-associated PDZ and coiled-coil motif-containing protein (P13569 whole entry, other chains not shown): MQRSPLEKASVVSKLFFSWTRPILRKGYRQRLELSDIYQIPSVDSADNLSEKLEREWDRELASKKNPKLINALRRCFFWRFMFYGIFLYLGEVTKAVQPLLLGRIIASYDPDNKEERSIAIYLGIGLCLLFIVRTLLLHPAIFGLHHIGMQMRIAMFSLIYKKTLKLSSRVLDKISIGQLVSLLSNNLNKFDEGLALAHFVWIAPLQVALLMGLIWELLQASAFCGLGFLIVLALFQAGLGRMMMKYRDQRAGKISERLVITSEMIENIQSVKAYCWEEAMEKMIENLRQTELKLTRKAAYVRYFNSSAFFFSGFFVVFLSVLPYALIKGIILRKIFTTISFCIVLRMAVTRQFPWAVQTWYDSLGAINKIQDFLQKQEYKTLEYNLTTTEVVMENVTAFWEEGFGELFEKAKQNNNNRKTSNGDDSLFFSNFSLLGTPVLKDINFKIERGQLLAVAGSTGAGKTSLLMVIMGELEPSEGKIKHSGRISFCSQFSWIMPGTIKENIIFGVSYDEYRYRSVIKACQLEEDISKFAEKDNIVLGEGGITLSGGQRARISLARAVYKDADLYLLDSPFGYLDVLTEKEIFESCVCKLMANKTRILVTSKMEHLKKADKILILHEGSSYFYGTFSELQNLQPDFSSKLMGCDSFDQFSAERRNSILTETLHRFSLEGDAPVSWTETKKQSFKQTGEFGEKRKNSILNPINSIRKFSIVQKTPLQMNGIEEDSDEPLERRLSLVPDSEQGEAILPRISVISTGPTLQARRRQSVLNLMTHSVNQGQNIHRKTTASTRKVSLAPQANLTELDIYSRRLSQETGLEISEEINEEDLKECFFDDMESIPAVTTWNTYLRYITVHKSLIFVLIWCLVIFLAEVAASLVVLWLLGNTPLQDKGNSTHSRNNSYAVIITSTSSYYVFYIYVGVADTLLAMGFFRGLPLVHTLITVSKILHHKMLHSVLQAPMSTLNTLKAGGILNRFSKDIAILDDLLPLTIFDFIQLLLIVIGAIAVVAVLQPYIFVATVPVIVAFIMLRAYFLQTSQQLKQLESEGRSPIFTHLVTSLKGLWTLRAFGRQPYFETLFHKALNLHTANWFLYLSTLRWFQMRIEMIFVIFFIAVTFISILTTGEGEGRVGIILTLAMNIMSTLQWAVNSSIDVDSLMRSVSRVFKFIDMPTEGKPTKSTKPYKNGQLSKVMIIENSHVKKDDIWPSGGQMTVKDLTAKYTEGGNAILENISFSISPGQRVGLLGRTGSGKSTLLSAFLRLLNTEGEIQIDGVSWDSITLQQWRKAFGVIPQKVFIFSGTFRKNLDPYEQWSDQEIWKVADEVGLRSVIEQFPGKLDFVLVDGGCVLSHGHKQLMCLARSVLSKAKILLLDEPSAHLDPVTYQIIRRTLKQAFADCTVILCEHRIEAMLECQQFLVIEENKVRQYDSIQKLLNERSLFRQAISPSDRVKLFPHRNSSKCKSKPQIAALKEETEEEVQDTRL

O=c1c2ccccc2nc2n1CCC2 [DEOXYVASICINONE]
active: AC50 [1] 21.3 µM | IC50 [2] 6.2 µM | IC50 (Hexokinase HKDC1) 4.32 µM | AC50 [3] 13.3 µM | EC50 (Protein RecA) 11.6 µM | AC50 [4] 60.4 µM
